Data on 18 compounds can be found in patent publication US20090275099A1 (priority 2004, published 2009).

Read-outs that look alike come from different tables or passages of the source.

For test [1], the target named is T1, mitochondrial F1F0-ATPase (Bos taurus, UniProt P13621+P32876). Kind of test: biochemical. More on the design: species or system bovine. Conditions: for IC50: read-out: KJ IC50 (hydr); for EC50: bovine SMPs.
The target of test [2] is T1, mitochondrial F1F0-ATPase. Kind of test: biochemical. Details: species or system bovine. The conditions noted are these: for IC50: read-out: KJ IC50 (syn); for EC50: bovine SMPs.
Test [3] has as its target mitochondrial F1F0-ATPase (Homo sapiens, UniProt P48047). The conditions noted are these: read-out: BMS IC50 (hydr); cited from earlier work.
Test [4] addresses T2, F1F0-ATPase, OSCP subunit (UniProt P48047).
T2 sequence (P48047 1-213): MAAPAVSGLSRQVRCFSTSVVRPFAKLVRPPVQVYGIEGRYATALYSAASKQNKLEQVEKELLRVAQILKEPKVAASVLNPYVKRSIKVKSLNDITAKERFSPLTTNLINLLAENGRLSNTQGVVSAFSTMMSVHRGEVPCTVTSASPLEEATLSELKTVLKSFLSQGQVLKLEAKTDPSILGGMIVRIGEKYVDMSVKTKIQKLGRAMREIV
Kind of test: F1F0-ATPase activity in SMPs reconstituted in the presence or absence of the OSCP. Format: biochemical, bovine. More on the design: rows headed: KJ IC50 reconst; not tied in print to the reconstitution assay. Conditions: read-out: KJ IC50 reconst. The protocol: (§1) An additional OSCP binding assay was conducted. […] Benzodiazepine derivative compounds that bind the OSCP include, but are not limited to: […]

Test [5] has as its system F1F0-ATPase, OSCP subunit. Described as above. In kind it is biochemical, bovine. Conditions: without OSCP, at IC50. On the procedure:
as §1

The next test deals with Ramos B cells. Kind of test: cell death of Ramos B cells, propidium iodide exclusion by flow cytometry, 24 h. Format: cell-based, human. The conditions noted are these: for EC50: 24 h.
The test system of the next test is Ramos cells. Kind of test: early O2− (ROS) response, 1 h. In kind it is cell-based, human. The conditions noted are these: for EC50: 1 h, read-out: ROS EC50 (μM), Ramos cells. On the procedure:
(§2) To detect O2^−, cells are incubated with DHE (10 μM) for 30 min at 37° C. and are analyzed by flow cytometry to measure ethidium fluorescence. Flow analysis of mitochondrial transmembrane potential (ψm) is conducted by labeling cells with DiOC6(3) (20 nM) for 15 min at 37 degrees C. A positive control for disruption of ψm is established using carbonyl cyanide m-chlorophenylhydrazone (CCCP, 50 μM). Caspase activation assays are performed with FAM-VAD-fluoromethylketone. Processing of the substrate is evaluated by flow cytometry.
(§3) Since an early mitochondrial superoxide (O2^−) mediates apoptosis induced by Bz-423, the O2^− response of cells 1 h following incubation with drug was examined, as well as cell death at 24 h, as previously described (see, e.g., Blatt, N. B., et al., 2002 J Clin Invest 110, 1123-1132; incorporated herein by reference in its entirety).

The subject of test [6] is Jurkat cells. Kind of test: early O2− (ROS) response, 1 h. The conditions noted are these: for EC50: 1 h, read-out: ROS EC50 (μM), Jurkat cells; for % ROS+: Jurkat cells, 75 μM PK11195, with or without antioxidant pre-incubation. In kind it is cell-based. On the procedure: as §2, §3
The test system of test [7] is Jurkat cells. Kind of test: cell death at 24 h. In kind it is cell-based. The conditions noted are these: for EC50: 24 h, read-out: Cell death EC50 (μM), Jurkat cells; for % Cell death: Jurkat cells, 75 μM PK11195, with or without antioxidant pre-incubation. On the procedure: as §3
[8] abbreviates: ATPase activity EC50 (μM), Hydrolysis.
Where [9] appears, read: ATPase activity EC50 (μM), Synthesis.

Regarding `N#Cc1cccc(C(=O)/N=C(\Nc2ccc(Cl)cc2)NC(Cn2ccnc2)c2ccc(Cl)cc2Cl)c1` (racemic) [(+/−)-(1-(2,4-dichlorophenyl)-2-(1H-imidazol-1-yl)ethyl)-3-(4-chlorophenyl)-2-(3-cyanobenzoyl)guanidine], the IC50 in [1] was 0.1 µM; in test [2], 1.5 µM; in test [3], 0.033 µM; in test [4], 0.2 µM.
With `O=S(=O)(c1ccc(Cl)c(Cl)c1)N1Cc2ccccc2N(Cc2c[nH]cn2)C(CCc2ccccc2)C1` (stereo not shown) [4-(3,4-dichlorophenylsulfonyl)-1-(1H-imidazol-4-ylmethyl)-2-phenethyl-2,3,4,5-tetrahydro-1H-benzo[e][1,4]diazepine], the IC50 in test [1] was 0.06 µM; in test [2], 5 µM; in test [3], 0.022 µM; in [4], 0.05 µM. Further, the “% activity without OSCP at IC50” value in test [5] is reported as 76%.
Take `O=S(=O)(c1ccc(F)cc1)N1Cc2ccccc2N(Cc2c[nH]cn2)C(CCc2ccccc2)C1` (stereo not shown) [4-(4-fluorophenylsulfonyl)1-(1H-imidazol-4-ylmethyl)-2-phenethyl-2,3,4,5-tetrahydro-1H-benzo[e][1,4]diazepine]: the IC50 in test [1] was 0.15 µM; in test [2] it was 7.5 µM; in test [3] it was 0.221 µM; in test [4], 0.1 µM. In addition, in test [5], the “% activity without OSCP at IC50” value is 79%.
With `O=S(=O)(c1ccc(O)cc1)N1Cc2ccccc2N(Cc2cnc[nH]2)C(CCc2ccccc2)C1` (stereo not shown) [4-(4-hydroxphenylsulfonyl)-1-(1H-imidazol-4-ylmethyl)-2-phenethyl-2,3,4,5-tetrahydro-1H-benzo[e][1,4]diazepine], the IC50 in test [1] was 0.75 µM; in test [2] it was 20 µM; in [3] it was 0.667 µM; in test [4], 0.5 µM. Further, in test [5], the “% activity without OSCP at IC50” value stood at 77%.
For `COc1ccc(S(=O)(=O)N2Cc3ccccc3N(Cc3c[nH]cn3)C(CCc3ccccc3)C2)cc1` (stereo not shown) [4-(4-methoxyphenylsulfonyl)-1-(1H-imidazol-4-ylmethyl)-2-phenethyl-2,3,4,5-tetrahydrol-1H-benzo[e][1,4]diazepine], the IC50 in [1] was 0.075 µM; in test [2], 7.5 µM; in [3], 0.077 µM; in [4] it was 0.05 µM. For the same compound, the “% activity without OSCP at IC50” value in test [5] is recorded as 81%.
As for `Cc1[nH]cnc1CN1c2ccccc2CN(S(=O)(=O)c2ccc(C(C)(C)C)cc2)CC1CCc1ccccc1` (stereo not shown) [4-(4-tert-butylphenylsulfonyl)-1-(5-methyl-1H-imidazol-4-ylmethyl)-2-phenethyl-2,3,4,5-tetrahydro-1H-benzo[e][1,4]diazepine], the IC50 is 0.055 µM in [1], 15 µM in test [2], 0.077 µM in test [3] and 0.005 µM in test [4]. Moreover, the “% activity without OSCP at IC50” value in [5] amounted to 80%.
As to `CC(C)(C)c1ccc(S(=O)(=O)N2Cc3ccccc3N(Cc3c[nH]cn3)C(CCc3ccccc3)C2)cc1` (stereo not shown) [4-(4-tertbutylphenylsulfonyl)-1-(1H-imidazol-4-ylmethyl)-2-phenethyl-2,3,4,5-tetrahydro-1H-benzo[e][1,4]diazepine], the IC50 in [1] was 0.025 µM; in test [2], 5 µM; in test [3], 0.008 µM; in test [4] it was 0.02 µM. Moreover, the “% activity without OSCP at IC50” value in test [5] worked out at 77%.
As to `O=S(=O)(c1ccc(C(F)(F)F)cc1)N1Cc2ccccc2N(Cc2c[nH]cn2)C(CCc2ccccc2)C1` (stereo not shown) [4-(4-trifluoromethylphenylsulfonyl)-1-(1H-imidazol-4-ylmethyl)-2-phenethyl-2,3,4,5-tetrahydro-1H-benzo[e][1,4]diazepine], the IC50 in test [1] is 0.05 µM; in test [2] it was 6 µM; in test [3], 0.1 µM; in [4], 0.025 µM. In addition, the “% activity without OSCP at IC50” value in test [5] turned out to be 80%.
Consider `O=S(=O)(N1Cc2ccccc2N(Cc2c[nH]cn2)C(CCc2ccccc2)C1)C(F)(F)F` (stereo not shown) [4-trifluoromethylsulfonyl-1-(1H-imidazol-4-ylmethyl)-2-phenethyl-2,3,4,5-tetrahydro-1H-benzo[e][1,4]diazepine], for which the 50% inhibitory concentration (IC50) is 0.05 µM in [1], 3.75 µM in test [2], 0.077 µM in [3] and 0.05 µM in [4]. Besides, the “% activity without OSCP at IC50” value in test [5] is given as 78%.
On to `N#CN/C(=N/c1ccc(Cl)cc1Cl)NC(Cn1ccnc1)c1ccc(Cl)cc1Cl` (stereo not shown) [(1-(2,4-dichlorophenyl)-2-(1H-imidazol-1-yl)ethyl)-3-(2,4-dichlorophenyl)-2-cyanoguanidine], for which the IC50 was over 3 µM in test [1], 6 µM in [2], 0.6 µM in [3] and 4 µM in test [4].
Regarding `N#CN/C(=N\C(Cn1ccnc1)c1cc(C(F)(F)F)ccc1C(F)(F)F)Nc1ccc(Cl)cc1Cl` (stereo not shown) [(1-(2,5-bis(trifluoromethyl)phenyl)-2-(1H-imidazol-1-yl)ethyl)-3-(2,4-dichlorophenyl)-2-cyanoguanidine], the IC50 in test [1] is 0.1 µM; in test [2] it was 3.75 µM; in test [3], 0.71 µM; in test [4], 0.25 µM.
For `S=C(Nc1ccc(Cl)cc1)OC(Cn1ccnc1)c1ccc(Cl)cc1Cl` (stereo not shown) [(4-chlorophenyl)-thiocarbamic acid O-[1-(2,4-dichlorophenyl)-2-imidazol-1-yl-ethyl] ester], the IC50 is 0.75 µM in test [1], 12.5 µM in test [2], 0.43 µM in test [3] and 0.3 µM in test [4]. Also, the “% activity without OSCP at IC50” value in test [5] worked out at 70%.
For `CN1C(=O)CN=C(c2ccc(Cl)cc2)c2cc(Cl)ccc21` [Compound 4-Cl-Dz, 4-chlorodiazepam], the “inhibition of mitochondrial ATPase activity” value in test [1] (80 μM) is reported as “do not significantly inhibit mitochondrial ATPase activity”. The EC50 was over 300 µM in [1] (read-out: ATPase activity EC50 (μM), Hydrolysis); 210 µM in test [2] (read-out: ATPase activity EC50 (μM), Synthesis); 130 µM in the test on Ramos B cells (read-out: Cell death EC50 (μM), Ramos cells); 180 µM with Ramos cells; 230 µM with Jurkat cells [6]; over 300 µM in the test on Jurkat cells [7].
Take `O=C1CN=C(c2ccccc2Cl)c2cc([N+](=O)[O-])ccc2N1` [Cz, clonazepam]: the EC50 was 240 µM in test [1] (setting [8]); 120 µM in test [2] (setting [9]); over 300 µM in the test with Ramos B cells (Homo sapiens, Ramos, read-out: Cell death EC50 (μM), Ramos cells); over 300 µM with Ramos cells (Homo sapiens, Ramos); over 300 µM in the test with Jurkat cells [6] (Homo sapiens, Jurkat); over 300 µM in the test on Jurkat cells [7] (Homo sapiens, Jurkat).
As to `CN1C(=O)CN=C(c2ccccc2)c2cc(Cl)ccc21` [Dz, diazepam, reference compound], the EC50 in test [1] (setting [8]) was over 300 µM; in test [2] (setting [9]) it was 210 µM; with Ramos B cells (Homo sapiens, Ramos, read-out: EC50 (μM), cell death) it was over 80 µM.
Take `CN1C(=O)C(Cc2ccc3ccccc3c2)CN(c2ccc(O)cc2)c2cc(Cl)ccc21` (stereo not shown) [GD-423]: the “cellular death of Ramos cells” value with Ramos B cells (24 hours, 2% FBS, FIG. 8) is reported as “causes cell death”. The “response of Ramos cells at 1 hour” value with Ramos cells (1 hour, 2% FBS, DHE, FIG. 9) is given as “causes cell death”.
For the compound `O=C(O)c1ccc(-c2c3nc(c(-c4ccc(C(=O)O)cc4)c4ccc([nH]4)c(-c4ccc(C(=O)O)cc4)c4nc(c(-c5ccc(C(=O)O)cc5)c5ccc2[nH]5)C=C4)C=C3)cc1.[Mn+3]` [MnTBAP, Manganese(III) meso-tetrakis(4-benzoic acid)porphyrin], in the test on Jurkat cells [6], the “% ROS+” value is listed as 39.7 ± 2.8%. Besides, the “% Cell death” value with Jurkat cells [7] came to 68.9 ± 1.0%.
The like results for vitamin E were, in that order, 33.9 ± 2.6% and 55.9 ± 0.5%.
